Experimental data reported in patent US10689362B2, “Quinoxaline compounds as type III receptor tyrosine kinase inhibitors” (Development Center for Biotechnology, priority 2016, dated 2020).

What was measured:
FLT3 kinase = FLT3 kinase (Homo sapiens (Human), UniProt P36888); experiment: FLT3 kinase assay (radiometric); assay type: biochemical; settings: bound
Outline: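 Recombinant FLT3 (5 ng) phosphorylating poly(Glu4:Tyr1) (2 μg) with 10 μM ATP plus [^33P]-ATP in MOPS pH 7.0 buffer, 4% DMSO final, 60 min at 30° C. Reaction stopped with phosphoric acid, filter-captured and scintillation-counted; IC50 derived from dose-response.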

[1] = test system: Kasumi-1 human acute myeloid leukemia cell with c-KIT N822K activating mutation; experiment: Kasumi-1 cell proliferation assay (CellTiter-96); assay type: cell-based; settings: Cytotoxicity, Kasumi-1 cells, 72 hours
Outline: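 Kasumi-1 cells, seeded at 64000 cells/well and incubated overnight at 37 °C, were exposed to increasing compound concentrations for 72 h. Viability was measured by CellTiter96 AQueous One reagent (4 h) and absorbance at 490 nm.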

[2] = test system: THP-1 human acute monocytic leukemia cell harboring NRAS G12D mutation; experiment: THP-1 cell proliferation assay (counter screen, CellTiter-96); assay type: cell-based; settings: Cytotoxicity, THP-1 cells (counter screen), 72 hours
Outline: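 THP-1 cells, RTK-independent owing to NRAS G12D, seeded at 5000/well, incubated overnight at 37 °C/5% CO2, then exposed to increasing compound concentrations for 72 h. CellTiter96 AQueous One reagent added for 4 h; viability from absorbance at 490 nm.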

c-KIT kinase = c-KIT kinase (Homo sapiens (Human), UniProt P10721); experiment: c-KIT kinase assay (radiometric); assay type: biochemical; settings: class symbol
Outline: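 Recombinant c-Kit (20 ng) with 2 μg Poly-(Glu4:Tyr1) in MOPS pH 7.0 buffer with MgCl2/MnCl2, 10 μM ATP plus [^33P]-ATP, 4% DMSO final, 60 min at 30° C. Stopped with phosphoric acid, filter-captured and scintillation counted; IC50 from curve fit.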

[3] = test system: MV4-11 human acute myeloid leukemia cell with FLT3-ITD mutation; experiment: MV4-11 cell proliferation assay (CellTiter-96); assay type: cell-based; settings: Cytotoxicity, MV4-11 cells, 72 hours
Outline: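 MV4-11 cells (FLT3-ITD, FLT3-dependent growth) seeded at 6500 cells/well, incubated overnight at 37° C., 5% CO2, then exposed to increasing compound concentrations for 72 hours. Viability read by CellTiter96 AQueous One reagent (4 hours), absorbance at 490 nm.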

CSF-1R kinase = CSF-1R kinase (Homo sapiens (Human), UniProt P07333); experiment: CSF-1R kinase assay (AlphaScreen); assay type: biochemical; settings: class symbol
Experimental: Inhibition of CSF-1R kinase activity by a test compound disclosed herein was estimated by AlphaScreen (PerkinElmer). […] Reactions were incubated at 30° C. for 45 min and stopped by adding 5 μL of 50 mM EDTA. Analysis of resulting product using an AlphaScreen kit, and counted with Enspire Alpha (PerkinElmer). […] The IC50 values of quinoxaline compounds of this invention against CSF-1R kinase were determined using the GraphPad Prism 5 software.

[4] = test system: osteoclast precursors (osteoclast differentiation); experiment: Osteoclast tartrate-resistant acid phosphatase assay; assay type: cell-based; settings: 168 h, at 1 μM treatment, 7 days, RANKL and M-CSF, read-out: inhibition activity against osteoclast differentiation
Outline: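 Differentiation inhibition was scored at 1 μM compound in duplicate, using supernatant TRAP activity read at 550 nm with an acid phosphatase kit.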

[5] = test system: CSF-1-dependent M-NFS-60 mouse myeloid leukemia cell; experiment: M-NFS-60 cell proliferation assay (CellTiter-96); assay type: cell-based; settings: Cytotoxicity, M-NFS-60 cells, 72 hours
Outline: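 CSF-1-dependent M-NFS-60 cells seeded at 2000 cells/well, settled overnight at 37 °C, 5% CO2, then exposed to increasing compound concentrations for 72 h. Viability read by CellTiter 96 AQueous One reagent (4 h) at 490 nm absorbance.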

PDGFRβ kinase = PDGFRβ kinase (Homo sapiens (Human), UniProt P09619); experiment: PDGFRβ kinase assay (radiometric); assay type: biochemical
Outline: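 Radiometric assay: recombinant PDGFRβ with poly(Glu4:Tyr1) in MOPS pH 7.0 buffer containing Mg2+/Mn2+, 10 μM ATP plus [33P]-ATP, and compound at 4% DMSO final. Incubated 60 min at 30° C, stopped with phosphoric acid, filter-captured and scintillation-counted. IC50 from curve fitting.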

Sequence of c-KIT kinase (P10721 26-976): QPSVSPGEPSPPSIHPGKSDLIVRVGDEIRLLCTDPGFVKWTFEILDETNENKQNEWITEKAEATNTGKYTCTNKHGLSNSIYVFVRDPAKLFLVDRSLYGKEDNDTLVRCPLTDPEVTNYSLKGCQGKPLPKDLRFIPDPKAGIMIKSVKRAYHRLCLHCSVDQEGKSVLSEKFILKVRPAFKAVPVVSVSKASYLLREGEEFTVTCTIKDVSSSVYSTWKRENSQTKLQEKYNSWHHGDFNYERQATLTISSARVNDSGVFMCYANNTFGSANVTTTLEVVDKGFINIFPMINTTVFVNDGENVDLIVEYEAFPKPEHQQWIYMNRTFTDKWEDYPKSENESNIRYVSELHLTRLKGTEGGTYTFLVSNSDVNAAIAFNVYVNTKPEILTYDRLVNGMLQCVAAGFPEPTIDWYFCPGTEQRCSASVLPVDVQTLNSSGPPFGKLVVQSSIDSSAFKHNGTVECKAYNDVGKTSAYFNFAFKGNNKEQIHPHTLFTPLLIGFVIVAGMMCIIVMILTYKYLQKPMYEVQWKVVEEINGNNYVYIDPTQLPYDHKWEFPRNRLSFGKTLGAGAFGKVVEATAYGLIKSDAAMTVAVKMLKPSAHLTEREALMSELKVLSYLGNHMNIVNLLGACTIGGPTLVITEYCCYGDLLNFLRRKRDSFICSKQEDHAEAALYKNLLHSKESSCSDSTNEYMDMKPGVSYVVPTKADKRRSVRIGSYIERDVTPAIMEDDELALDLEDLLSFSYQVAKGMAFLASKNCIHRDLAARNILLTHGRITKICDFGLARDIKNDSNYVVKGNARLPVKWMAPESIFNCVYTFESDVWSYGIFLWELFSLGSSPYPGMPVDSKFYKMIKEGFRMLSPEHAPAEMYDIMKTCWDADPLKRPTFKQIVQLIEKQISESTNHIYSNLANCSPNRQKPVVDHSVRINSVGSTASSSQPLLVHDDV
Sequence of FLT3 kinase (P36888 27-993): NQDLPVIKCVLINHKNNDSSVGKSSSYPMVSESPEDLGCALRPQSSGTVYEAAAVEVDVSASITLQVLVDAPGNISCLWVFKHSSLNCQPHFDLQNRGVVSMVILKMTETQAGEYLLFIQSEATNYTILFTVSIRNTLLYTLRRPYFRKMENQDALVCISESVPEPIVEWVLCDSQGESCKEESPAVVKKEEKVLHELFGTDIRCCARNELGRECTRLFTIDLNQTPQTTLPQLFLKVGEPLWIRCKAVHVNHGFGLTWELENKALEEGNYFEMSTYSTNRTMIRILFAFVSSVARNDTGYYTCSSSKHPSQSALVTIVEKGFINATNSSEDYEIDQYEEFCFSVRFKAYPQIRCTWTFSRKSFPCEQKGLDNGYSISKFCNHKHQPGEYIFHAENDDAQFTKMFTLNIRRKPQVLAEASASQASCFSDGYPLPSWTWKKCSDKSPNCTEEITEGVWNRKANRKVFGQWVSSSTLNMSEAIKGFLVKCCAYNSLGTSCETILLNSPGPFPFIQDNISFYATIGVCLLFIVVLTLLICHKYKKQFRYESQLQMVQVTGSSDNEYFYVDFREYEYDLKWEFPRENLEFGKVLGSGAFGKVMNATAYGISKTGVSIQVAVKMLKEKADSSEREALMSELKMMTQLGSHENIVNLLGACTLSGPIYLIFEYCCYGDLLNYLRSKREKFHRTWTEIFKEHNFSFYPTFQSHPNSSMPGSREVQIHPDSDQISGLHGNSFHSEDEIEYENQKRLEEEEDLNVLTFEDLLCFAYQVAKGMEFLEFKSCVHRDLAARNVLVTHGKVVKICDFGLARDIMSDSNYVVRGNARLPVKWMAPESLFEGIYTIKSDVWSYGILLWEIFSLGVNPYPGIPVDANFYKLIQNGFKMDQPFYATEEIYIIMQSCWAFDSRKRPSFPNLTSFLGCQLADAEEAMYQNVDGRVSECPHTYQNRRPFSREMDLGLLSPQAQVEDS
Sequence of PDGFRβ kinase (P09619 33-1106): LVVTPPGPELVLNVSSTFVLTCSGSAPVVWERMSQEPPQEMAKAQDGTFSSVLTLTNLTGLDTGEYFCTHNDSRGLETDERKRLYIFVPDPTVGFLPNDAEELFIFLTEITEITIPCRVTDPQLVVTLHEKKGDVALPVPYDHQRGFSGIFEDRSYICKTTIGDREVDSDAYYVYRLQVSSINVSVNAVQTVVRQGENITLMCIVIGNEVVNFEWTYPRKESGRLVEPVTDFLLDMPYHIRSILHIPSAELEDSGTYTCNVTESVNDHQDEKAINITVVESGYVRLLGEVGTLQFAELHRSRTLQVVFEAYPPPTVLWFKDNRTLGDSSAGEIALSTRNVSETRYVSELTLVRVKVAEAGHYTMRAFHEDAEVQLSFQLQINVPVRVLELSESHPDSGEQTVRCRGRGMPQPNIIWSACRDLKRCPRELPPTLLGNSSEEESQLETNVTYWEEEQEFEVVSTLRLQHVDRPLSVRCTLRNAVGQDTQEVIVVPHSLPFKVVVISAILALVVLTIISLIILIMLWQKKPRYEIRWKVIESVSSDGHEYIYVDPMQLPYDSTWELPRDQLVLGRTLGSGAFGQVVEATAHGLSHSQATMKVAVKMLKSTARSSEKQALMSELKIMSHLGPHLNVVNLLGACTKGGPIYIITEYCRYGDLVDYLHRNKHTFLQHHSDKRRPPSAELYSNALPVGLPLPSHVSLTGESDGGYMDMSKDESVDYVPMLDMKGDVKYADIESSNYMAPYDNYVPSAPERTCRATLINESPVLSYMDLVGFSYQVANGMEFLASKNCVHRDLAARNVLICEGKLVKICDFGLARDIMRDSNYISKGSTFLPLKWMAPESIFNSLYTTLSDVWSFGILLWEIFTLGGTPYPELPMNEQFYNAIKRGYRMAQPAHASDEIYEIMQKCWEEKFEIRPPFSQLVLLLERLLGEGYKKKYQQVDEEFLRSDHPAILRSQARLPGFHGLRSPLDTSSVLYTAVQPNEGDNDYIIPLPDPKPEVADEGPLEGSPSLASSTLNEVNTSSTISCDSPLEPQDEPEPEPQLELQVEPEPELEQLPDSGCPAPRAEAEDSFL
Sequence of CSF-1R kinase (P07333 20-972): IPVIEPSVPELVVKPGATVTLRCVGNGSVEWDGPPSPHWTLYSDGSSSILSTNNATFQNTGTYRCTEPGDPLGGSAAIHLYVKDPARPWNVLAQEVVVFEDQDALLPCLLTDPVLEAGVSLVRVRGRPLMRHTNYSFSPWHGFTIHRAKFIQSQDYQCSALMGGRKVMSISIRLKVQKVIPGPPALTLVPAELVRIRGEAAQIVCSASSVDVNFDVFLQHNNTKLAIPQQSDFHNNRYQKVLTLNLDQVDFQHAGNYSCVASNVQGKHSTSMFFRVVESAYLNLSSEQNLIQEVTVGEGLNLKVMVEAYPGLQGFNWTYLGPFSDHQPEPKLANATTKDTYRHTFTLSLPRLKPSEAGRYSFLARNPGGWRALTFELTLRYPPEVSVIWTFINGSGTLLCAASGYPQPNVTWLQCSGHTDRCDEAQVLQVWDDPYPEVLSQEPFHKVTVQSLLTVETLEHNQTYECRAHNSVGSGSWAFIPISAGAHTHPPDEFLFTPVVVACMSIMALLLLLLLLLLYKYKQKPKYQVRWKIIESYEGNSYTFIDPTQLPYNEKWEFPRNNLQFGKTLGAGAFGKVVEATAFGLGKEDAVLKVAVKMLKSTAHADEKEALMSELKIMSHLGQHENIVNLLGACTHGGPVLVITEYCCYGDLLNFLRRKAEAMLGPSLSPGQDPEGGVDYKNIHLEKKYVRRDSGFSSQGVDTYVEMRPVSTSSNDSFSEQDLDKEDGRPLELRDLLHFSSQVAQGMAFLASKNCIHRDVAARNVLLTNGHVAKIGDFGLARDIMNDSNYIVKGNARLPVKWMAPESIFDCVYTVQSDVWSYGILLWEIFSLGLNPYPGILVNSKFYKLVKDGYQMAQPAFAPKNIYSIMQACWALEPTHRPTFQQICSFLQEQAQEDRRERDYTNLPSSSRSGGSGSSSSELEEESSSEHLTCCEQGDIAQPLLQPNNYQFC

| IC50 (FLT3 kinase) | IC50 (c-KIT kinase) | IC50 (CSF-1R kinase) | IC50 (PDGFRβ kinase; bound) | IC50 (PDGFRβ kinase; class symbol) | SMILES | IC50 [1] | IC50 [2] | IC50 [3] | inhibition at 1 µM [4] | IC50 [5] |
| --- | --- | --- | --- | --- | --- | --- | --- | --- | --- | --- |
| > 1000 nM | 100 to 300 nM | < 100 nM | > 1000 nM | – | COc1cc(Nc2ccc3ncc(N4C[C@@H](C)O[C@@H](C)C4)nc3c2C#N)ccc1OCc1ccc(C)nc1 [Example 145, 3-((2S,6R)-2,6-dimethylmorpholino)-6-((3-methoxy-4-((6-methyl-pyridin-3-yl)methoxy)phenyl)amino)quinoxaline-5-carbonitrile] | 300 to 1000 nM | > 10 µM | 1 to 10 µM | > 50% | < 300 nM |
| > 1000 nM | < 100 nM | < 100 nM | > 1000 nM | – | COc1cc(Nc2ccc3ncc(N4CCOCC4)nc3c2C(N)=O)ccc1OCc1ccc(C)nc1 [Example 135, 6-((3-methoxy-4-((6-methylpyridin-3-yl)methoxy)phenyl)amino)-3-morpholinoquinoxaline-5-carboxamide] | < 300 nM | > 10 µM | 1 to 10 µM | > 50% | < 300 nM |
| > 1000 nM | 100 to 300 nM | < 100 nM | > 1000 nM | – | COc1ccc(COc2ccc(Nc3ccc4ncc(N5CCC(N(C)C)CC5)nc4c3C#N)cc2OC)cn1 [Example 82, 3-(4-(dimethylamino)piperidin-1-yl)-6-((3-methoxy-4-((6-methoxy-pyridin-3-yl)methoxy)phenyl)amino)quinoxaline-5-carbonitrile] | < 300 nM | 1 to 10 µM | 1 to 10 µM | > 50% | < 300 nM |
| > 1000 nM | < 100 nM | < 100 nM | > 1000 nM | – | CCCc1ccc(COc2ccc(Nc3ccc4ncc(N5CCOCC5)nc4c3C#N)cc2OC)cn1 [Example 98, 6-((3-methoxy-4-((6-propylpyridin-3-yl)methoxy)phenyl)amino)-3-morpholinoquinoxaline-5-carbonitrile] | < 300 nM | > 10 µM | 1 to 10 µM | > 50% | < 300 nM |
| > 1000 nM | < 100 nM | < 100 nM | > 1000 nM | – | COc1cc(Nc2ccc3ncc(N4CCC(N(C)C)CC4)nc3c2C#N)ccc1OCc1cccc(F)c1 [Example 89, 3-(4-(dimethylamino)piperidin-1-yl)-6-((4-((3-fluorobenzyl)oxy)-3-methoxyphenyl)amino)quinoxaline-5-carbonitrile] | 1000 to 10000 nM | 1 to 10 µM | 1 to 10 µM | > 50% | < 300 nM |
| > 1000 nM | < 100 nM | < 100 nM | > 1000 nM | – | COc1ccc(COc2ccc(Nc3ccc4ncc(N5CCOCC5)nc4c3C#N)cc2OC)c(F)c1 [Example 94, 6-((4-((2-fluoro-4-methoxybenzyl)oxy)-3-methoxyphenyl)amino)-3-morpholinoquinoxaline-5-carbonitrile] | 300 to 1000 nM | > 10 µM | > 10 µM | > 50% | < 300 nM |

More lines, now with the values behind:

| SMILES | IC50 (FLT3 kinase) | IC50 (c-KIT kinase) | IC50 (CSF-1R kinase) | IC50 (PDGFRβ kinase; bound) | IC50 (PDGFRβ kinase; class symbol) | IC50 [1] | IC50 [2] | IC50 [3] | inhibition at 1 µM [4] | IC50 [5] |
| --- | --- | --- | --- | --- | --- | --- | --- | --- | --- | --- |
| COc1ccc(COc2ccc(Nc3ccc4ncc(N(C)C)nc4c3C#N)cc2OC)cc1C#N [Example 139, 6-((4-((3-cyano-4-methoxybenzyl)oxy)-3-methoxyphenyl)amino)-3-(dimethylamino)quinoxaline-5-carbonitrile] | > 1000 nM | 100 to 300 nM | < 100 nM | > 1000 nM | – | > 10000 nM | > 10 µM | > 10 µM | > 50% | < 300 nM |
| COc1cc(Nc2ccc3ncc(N4CCOCC4)nc3c2C#N)ccc1OCc1ccc2c(c1)CCO2 [Example 45, 6-((4-((2,3-dihydrobenzofuran-5-yl)methoxy)-3-methoxyphenyl)amino)-3-morpholinoquinoxaline-5-carbonitrile] | > 1000 nM | < 100 nM | < 100 nM | > 1000 nM | – | 300 to 1000 nM | > 10 µM | > 10 µM | > 50% | < 300 nM |
| COc1cc(Nc2ccc3ncc(N4CCOCC4)nc3c2C#N)ccc1OCc1cccc(C#N)c1 [Example 65, 6-((4-((3-cyanobenzyl)oxy)-3-methoxyphenyl)amino)-3-morpholinoquinoxaline-5-carbonitrile] | > 1000 nM | 100 to 300 nM | < 100 nM | > 1000 nM | – | > 10000 nM | > 10 µM | > 10 µM | > 50% | < 300 nM |
| CNc1cnc2ccc(Nc3ccc(OCc4ccc(OC)cc4)c(OC)c3)c(C#N)c2n1 [Example 12, 6-((3-methoxy-4-((4-methoxybenzyl)oxy)phenyl)amino)-3-(methylamino)quinoxaline-5-carbonitrile] | > 1000 nM | < 100 nM | < 100 nM | > 1000 nM | – | 300 to 1000 nM | > 10 µM | > 10 µM | > 50% | < 300 nM |
| COc1ccc(COc2ccc(Nc3ccc4ncc(N5CCOCC5)nc4c3C#N)cc2OC)cc1C#N [Example 96, 6-((4-((3-cyano-4-methoxybenzyl)oxy)-3-methoxy-phenyl)amino)-3-morpholinoquinoxaline-5-carbonitrile] | > 1000 nM | 100 to 300 nM | < 100 nM | > 1000 nM | – | > 10000 nM | > 10 µM | 1 to 10 µM | > 50% | < 300 nM |
| CCc1ccc(COc2ccc(Nc3ccc4ncc(N5CCOCC5)nc4c3C#N)cc2OC)cc1 [Example 33, 6-((4-((4-ethylbenzyl)oxy)-3-methoxyphenyl)amino)-3-morpholinoquinoxaline-5-carbonitrile] | > 1000 nM | < 100 nM | < 100 nM | – | 100 to 300 nM | < 300 nM | > 10 µM | 1 to 10 µM | > 50% | < 300 nM |
| COc1ccc(COc2ccc(Nc3ccc4ncc(N5CCN(C6CC6)CC5)nc4c3C#N)cc2OC)cn1 [Example 118, 3-(4-cyclopropylpiperazin-1-yl)-6-((3-methoxy-4-((6-methoxypyridin-3-yl)methoxy)phenyl)amino)quinoxaline-5-carbonitrile] | > 1000 nM | 100 to 300 nM | < 100 nM | > 1000 nM | – | 1000 to 10000 nM | > 10 µM | > 10 µM | > 50% | < 300 nM |
